# Measured values reported in publication PMC12567082, “Silver(I) Complexes Bearing S-Alkyl Thiosalicylic Acid Derivatives: DNA/BSA Binding and Antitumor Activity In Vitro and In Vivo” (Pharmaceutics, 2025).
# Assays:
# [1] = system: human fibroblast cell lines (MRC-5); test: MTT assay MRC-5; type: cell-based
# Experimental: (§1) Mouse breast cancer (4T1), human breast cancer (MDA-MB-468), mouse colon cancer (CT26), human colon cancer (HCT-116), mouse lung cancer (LLC1), human lung cancer (A549), mouse mesenchymal stem cells (mMSC), and human fibroblast cell lines (MRC-5) were used in this study and were consistently cultured in complete Dulbecco’s Modified Eagle Medium (DMEM) (Sigma-Aldrich, St. Louis, MO, USA) in incubator (5% CO2) under standard conditions. Complete DMEM was Dulbecco’s Modified Eagle Medium supplemented with 10% fetal bovine serum (FBS), 1 mmol/L penicillin–streptomycin, 1 mmol/L mixed nonessential amino acids, and 2 mmol/L L-glutamine (Sigma-Aldrich, St. Louis, MO, USA). All cancer cell lines and MRC-5 cell line were obtained from American Type Culture Collection (ATCC, Manassas, VA, USA), but mMSC was manufactured by Gibco (Middlesex County, MA, USA).
# (§2) In 96-well microplates, we seeded cancer and non-cancer cells, more exactly 5 × 10^3 cells per well in 100 μL of complete DMEM (Sigma-Aldrich, St. Louis, MO, USA). […] Tested concentration range for all metal-based substances was 3.9–500 μM. After incubation with MTT solution (5 mg/mL; pH 7.2) for 4 h, optical density was determined using Zenyth 3100 microplate multimode detector (Salzburg, Austria). All experiments were performed three times, each in triplicate, and the IC50 values as well as selectivity indexes (IC50 for mMSC or MRC-5/IC50 for mouse or human cancer cells) were calculated.
# [2] = system: Mouse breast cancer (4T1); test: MTT assay 4T1; type: cell-based
# Experimental: as §1, §2
# human lung cancer (A549) = test: MTT assay A549; type: cell-based
# Experimental: as §1, §2
# [3] = system: human breast cancer (MDA-MB-468); test: MTT assay MDA-MB-468; type: cell-based
# Experimental: as §1, §2
# [4] = system: mouse colon cancer (CT26); test: MTT assay CT26; type: cell-based
# Experimental: as §1, §2
# CT-DNA [5] = test: EB–CT-DNA fluorescence quenching; type: binding, calf; conditions: EB–CT-DNA 8.52 × 10^−5 M, PBS pH 7.4
# Experimental: All samples were prepared in phosphate-buffered saline (PBS, pH 7.4). Stern–Volmer Equation (2) was used to interpret the fluorescence quenching data.
# CT-DNA [6] = test: UV-Vis absorption titration with CT-DNA; type: binding, calf; conditions: ΔG = −RT lnKb
# Experimental: All DNA-binding studies were conducted in 0.01 M phosphate-buffered saline (PBS, pH 7.40) at 25 °C. […] To eliminate absorbance from CT-DNA, identical amounts of DNA were added to both the test and reference solutions prior to spectral recording.
# Intrinsic binding constants (Kb) were calculated using the equation to determine the DNA-binding affinities of the complexes (1):[DNA]/(εa − εf) = [DNA]/(εb − εf) + 1 [Kb(εb − εf)](1)
# [DNA] represents the concentration of DNA; apparent extinction coefficient, εa, was calculated as the ratio of the observed absorbance to the concentration of the complex (Aobs/[complex]); and εb and εf correspond to the extinction coefficients of the complex in the fully bound and free forms, respectively. Kb was determined from the ratio of the slope to the intercept obtained from the corresponding linear plots.
# BSA = target: T1, BSA (Bos taurus, UniProt P02769); test: BSA tryptophan fluorescence quenching; type: binding, bovine
# T1 construct: purchased Sigma-Aldrich
# T1 sequence (P02769 25-607): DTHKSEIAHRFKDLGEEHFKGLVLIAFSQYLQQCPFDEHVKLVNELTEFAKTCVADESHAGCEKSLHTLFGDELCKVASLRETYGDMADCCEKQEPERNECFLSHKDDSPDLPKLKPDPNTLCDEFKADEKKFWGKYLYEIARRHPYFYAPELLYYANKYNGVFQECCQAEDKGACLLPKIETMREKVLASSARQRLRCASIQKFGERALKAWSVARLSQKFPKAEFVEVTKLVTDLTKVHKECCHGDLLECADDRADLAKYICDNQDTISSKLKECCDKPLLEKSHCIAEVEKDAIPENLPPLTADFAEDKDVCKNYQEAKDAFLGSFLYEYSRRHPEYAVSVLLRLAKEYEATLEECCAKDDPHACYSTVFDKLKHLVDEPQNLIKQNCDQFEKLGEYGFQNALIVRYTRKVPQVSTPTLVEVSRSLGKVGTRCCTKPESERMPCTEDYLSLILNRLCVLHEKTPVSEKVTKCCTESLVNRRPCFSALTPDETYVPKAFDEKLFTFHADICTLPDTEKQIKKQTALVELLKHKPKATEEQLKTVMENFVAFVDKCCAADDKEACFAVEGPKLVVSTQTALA
# Experimental: The protein binding study was carried out using tryptophan fluorescence quenching experiments with BSA. […] Fluorescence emission spectra were recorded between 300 and 500 nm, with excitation at 295 nm.
# The quenching constant Ksv was determined based on the Stern–Volmer relationship, as described by Equation (3):I0/I = 1 + kqτ0[Q] = 1 + Ksv[Q](3)
# In this equation, I0 and I refer to the fluorescence intensities of BSA measured without and with the quencher (complex), τ0 represents the average fluorescence lifetime of free BSA (∼10^−8 s), and [Q] indicates the quencher concentration.
# Parameters such as association binding constant (K) and the number of binding sites per albumin (n) were obtained from Scatchard Equation (4):(ΔI/I0)/[Q] = nK − KΔI/I0(4)
# To minimize inner filter, both intensities of fluorescence originating from excitation and emission light absorption and re-absorption were corrected by employing Equation (5); Icor and Iobs are the corrected and observed fluorescence intensities, respectively, and Aex and Aem represent the absorbance of the metal complex at the excitation and emission wavelengths, respectively.Icor = Iobs · […]^(Aex + Aem)/2(5)
# mouse lung cancer (LLC1) = test: MTT assay LLC1; type: cell-based
# Experimental: as §1, §2
# 4T1 mammary tumors = test: Breast cancer development in vivo (orthotopic 4T1); set-up: species or system BALB/C female mice; conditions: 6 mg/kg i.p., five single doses every third day, after day 18
# Experimental: (§3) Ethics Committee of the Faculty of Medical Sciences of the University of Kragujevac, Serbia, approved all experiments (01-5301/11). ARRIVE guidelines and EU Directive 2010/63/EU for animal experiments were followed. Experimental animals, BALB/C female mice (8–10 weeks old), were housed under standard conditions (temperature-controlled environment, a 12 h light–dark cycle, fed ad libitum, and observed daily) throughout whole duration of experiment. Animals were inoculated with 4T1 cells (3 × 10^4) into the fourth mammary fat pad as previously described. Animals were randomly assigned to experimental or control groups, and after palpable tumors were detected, the pharmacological treatments were started. Female BALB/C mice intraperitoneally received either C3 (3 mg/kg), C3 (6 mg/kg), CDDP (6 mg/kg), or vehicle in distilled water with 0.05% DMSO (Sigma-Aldrich, St. Louis, MO, USA) (untreated group) in five single doses every third day (8 animals per group). Using electronic calipers (Moore and Wright, Sheffield, UK), the sizes of primary 4T1 mammary tumors were morphometrically evaluated. On the 30th day of experiment, animals were sacrificed, blood was collected (for determination of serum levels of ALT, AST, urea, and creatinine), and tissue sections (liver and kidney) were stained with H&E for further analysis. Liver or kidney sections were analyzed by two observers, and the injury levels were determined as previously reported.
# BALB/C female mice = test: In vivo toxicity (serum biochemistry, liver and kidney histology); conditions: 6 mg/kg, H&E, day 30
# Experimental: as §3
# [7] = system: human colon cancer (HCT-116); test: MTT assay HCT116; type: cell-based
# Experimental: as §1, §2
# [8] = system: mouse mesenchymal stem cells (mMSC); test: MTT assay mMSC; type: cell-based; conditions: 24 h
# Experimental: as §1, §2
# CT-DNA [9] = system: CT-DNA; set-up: method as in PMID 25350363; conditions: cited from earlier work
molecule,measurement,setting,value
"CSc1ccccc1C(=O)O [L1, S-methyl derivative of thiosalicylic acid]",IC50,"[1]; MRC-5, 48 h",488 ± 41.6 µM
same,IC50,"[2]; 4T1, 48 h",443 ± 30.5 µM
"CCCCSc1ccccc1C(=O)O [L4, S-butyl derivative of thiosalicylic]",IC50,"human lung cancer (A549); A549, 24 h",494.9 ± 3.58 µM
same,IC50,"human lung cancer (A549); A549, 48 h",490 ± 22 µM
same,IC50,"[3]; MDA-MB-468, 48 h",408 ± 12.7 µM
same,IC50,"[2]; 4T1, 24 h",407 ± 35.1 µM
same,IC50,"[2]; 4T1, 48 h",417 ± 61.4 µM
same,IC50,"[4]; CT26, 48 h",368 ± 58.3 µM
[Ag2(S-Methyl-Thiosal)2] [C1],IC50,"[1]; MRC-5, 24 h",46.3 ± 1.52 µM
same,IC50,"[1]; MRC-5, 48 h",53.2 ± 1.27 µM
same,Ksv EB (Stern–Volmer constant),CT-DNA [5],(6.0 ± 0.1) × 10^3 M^−1
same,ΔG (Gibbs free energy),CT-DNA [6],-6.64 kcal/mol
same,kq (quenching rate constant),BSA; BSA 2 µM,(1.7 ± 0.1) × 10^13 M^−1 s^−1
same,Ksv (Stern–Volmer constant),"BSA; BSA 2 µM, λex 295 nm",(1.7 ± 0.1) × 10^5 M^−1
same,K (binding constant),BSA; Scatchard equation,(1.7 ± 0.1) × 10^5 M^−1
same,n (number of binding sites),BSA; Scatchard equation,0.8
same,IC50,"human lung cancer (A549); A549, 24 h",58.3 ± 1.91 µM
same,Selectivity Index (IC50 mMSC or MRC-5/ IC50 Cancer Cell),"human lung cancer (A549); A549, 24 h",0.79
same,IC50,"human lung cancer (A549); A549, 48 h",48.6 ± 1.06 µM
same,Selectivity Index (IC50 mMSC or MRC-5/ IC50 Cancer Cell),"human lung cancer (A549); A549, 48 h",1.10
same,IC50,"mouse lung cancer (LLC1); LLC1, 24 h",39.8 ± 1.07 µM
same,IC50,"mouse lung cancer (LLC1); LLC1, 48 h",32 ± 1.47 µM
same,IC50,"[3]; MDA-MB-468, 24 h",4.19 ± 0.98 µM
same,Selectivity Index (IC50 mMSC or MRC-5/ IC50 Cancer Cell),"[3]; MDA-MB-468, 24 h",11.05
same,IC50,"[3]; MDA-MB-468, 48 h",4.37 ± 0.41 µM
same,Selectivity Index (IC50 mMSC or MRC-5/ IC50 Cancer Cell),"[3]; MDA-MB-468, 48 h",12.18
same,IC50,"[2]; 4T1, 48 h",4 ± 0.95 µM
"CCCSc1ccccc1C(=O)O [L3, S-propyl derivative of thiosalicylic acid]",IC50,"human lung cancer (A549); A549, 48 h",500 ± 47.3 µM
same,IC50,"[2]; 4T1, 48 h",500 ± 30.5 µM
"[NH2][Pt]([NH2])([Cl])[Cl] [CDDP, cisplatin, reference compound]",IC50,"[1]; MRC-5, 24 h",40.5 ± 0.57 µM
same,IC50,"[1]; MRC-5, 48 h",27.4 ± 0.72 µM
same,tumor growth compared to the untreated group,4T1 mammary tumors,significantly slower
same,IC50,"human lung cancer (A549); A549, 24 h",23.2 ± 1.77 µM
same,Selectivity Index (IC50 mMSC or MRC-5/ IC50 Cancer Cell),"human lung cancer (A549); A549, 24 h",1.74
same,IC50,"human lung cancer (A549); A549, 48 h",14 ± 1.44 µM
same,Selectivity Index (IC50 mMSC or MRC-5/ IC50 Cancer Cell),"human lung cancer (A549); A549, 48 h",1.95
same,liver changes (histopathology),BALB/C female mice,"piecemeal necrosis, focal lytic necrosis, and portal inflammation"
same,IC50,"[7]; HCT 116, 24 h",63.3 ± 3.21 µM
same,IC50,"[7]; HCT 116, 48 h",15.8 ± 1.28 µM
same,Selectivity Index (IC50 mMSC or MRC-5/ IC50 Cancer Cell),"[7]; HCT-116, 24 h",0.64
same,Selectivity Index (IC50 mMSC or MRC-5/ IC50 Cancer Cell),"[7]; HCT-116, 48 h",1.73
same,IC50,"mouse lung cancer (LLC1); LLC1, 24 h",21.8 ± 1.11 µM
same,Selectivity Index (IC50 mMSC or MRC-5/ IC50 Cancer Cell),"mouse lung cancer (LLC1); LLC1, 24 h",0.79
same,IC50,[8],17.1 ± 1.15 µM
same,IC50,"[3]; MDA-MB-468, 24 h",4.06 ± 0.97 µM
same,Selectivity Index (IC50 mMSC or MRC-5/ IC50 Cancer Cell),"[3]; MDA-MB-468, 24 h",9.98
same,IC50,"[2]; 4T1, 24 h",12 ± 1.98 µM
same,Selectivity Index (IC50 mMSC or MRC-5/ IC50 Cancer Cell),"[2]; 4T1, 24 h",1.43
same,IC50,"[2]; 4T1, 48 h",5.17 ± 0.98 µM
same,IC50,"[4]; CT26, 24 h",16.9 ± 1.42 µM
same,Selectivity Index (IC50 mMSC or MRC-5/ IC50 Cancer Cell),"[4]; CT26, 24 h",1.01
"CCSc1ccccc1C(=O)O [L2, S-ethyl derivative of thiosalicylic]",IC50,"[1]; MRC-5, 48 h",384 ± 20.5 µM
same,IC50,"[2]; 4T1, 48 h",500 ± 7.6 µM
same,IC50,"[4]; CT26, 48 h",465 ± 39.5 µM
"CC[n+]1c(-c2ccccc2)c2cc(N)ccc2c2ccc(N)cc21.[Br-] [ethidium bromide, 3,8-diamino-5-ethyl-6-phenylphenanthridinium bromide]",Kb,CT-DNA [9],(1.23 ± 0.07) × 10^5 M^−1
